The results in this text go back to article PMC11289669, “BAR502/fibrate conjugates: synthesis, biological evaluation and metabolic profile” (Frontiers in Chemistry, 2024).

The term EC50 denotes the concentration needed to bring the measured effect to its halfway point. Read a high EC50 as a less potent agent.

The target of assay [1] is T1, FXR (Homo sapiens, UniProt Q96RI1).
T1 sequence (Q96RI1 262-486 limits assumed): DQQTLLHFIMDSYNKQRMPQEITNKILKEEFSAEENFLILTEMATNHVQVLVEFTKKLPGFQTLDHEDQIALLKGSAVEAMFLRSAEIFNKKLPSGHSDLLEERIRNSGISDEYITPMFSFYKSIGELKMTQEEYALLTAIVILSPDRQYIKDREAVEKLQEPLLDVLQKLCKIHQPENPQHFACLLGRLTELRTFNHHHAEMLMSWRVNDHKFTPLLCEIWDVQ
Briefly: AlphaScreen coactivator (SRC-1) recruitment assay on FXR. The class given is biochemical. The conditions noted are these: for FXR efficacy (% vs. CDCA): AlphaScreen SRC-1 recruitment, compounds at 10 μM, CDCA = 100%. As to the method: (§1) Compounds’ ability to mediate cofactor recruitment was evaluated by employing AlphaScreen GST Detection Kit (PerkinElmer). Particularly, FXR agonism was evaluated employing 10 nM FXR-LBD GST-fused (Thermo Scientific) and 30 nM of biotinylated SRC1 peptide ([…]) in the presence of 20 μg/mL donor and acceptor beads and in buffer containing 50 mM Tris-HCl (pH7.4), 20 mM KCl, 1 mM DTT, and 0.1% BSA. For PPARα assay, a buffer containing 50 mM MOPS, 50 mM NaF, 0.05 mM CHAPS, and 0.05% BSA (pH = 7.4) was used, and 20 nM PPARα LBD GST fused (Thermo Scientific) and 60 nM of biotinylated SRC1 peptide were employed. Both acceptor and donor beads were added to reach 20 μg/mL final concentration. Incubations were performed in a final volume of 25 μL employing 384 wells Optiplate and Alpha signal was measured with Envision 2,105 (Perkin Elmer) multimode plate reader. For efficacy, compounds were tested at 10 μM for FXR and 50 μM for PPARα.

For another assay, the target named is T2, GPBAR1 (Homo sapiens, UniProt Q8TDU6).
T2 construct: expressed in transfected cells; host or cells: HEK-293T
T2 sequence (Q8TDU6 1-330): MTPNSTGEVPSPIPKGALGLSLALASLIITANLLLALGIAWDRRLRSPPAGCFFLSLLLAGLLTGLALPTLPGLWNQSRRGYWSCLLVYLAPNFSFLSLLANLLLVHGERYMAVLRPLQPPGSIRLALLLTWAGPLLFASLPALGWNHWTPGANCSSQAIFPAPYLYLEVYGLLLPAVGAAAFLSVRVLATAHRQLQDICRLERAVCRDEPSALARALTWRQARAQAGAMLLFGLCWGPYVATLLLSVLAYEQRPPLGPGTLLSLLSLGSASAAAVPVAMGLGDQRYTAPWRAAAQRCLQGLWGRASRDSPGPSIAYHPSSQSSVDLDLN
In words: GPBAR1 transactivation (CRE-luciferase reporter) assay in HEK-293T cells. The note with it: for Emax: 18 h, read-out: GPBAR1 efficacy (% vs. TLCA); for Emax / GPBAR1 efficacy (% vs. TLCA): transactivation on HEK-293T cells, TLCA 10 μM = 100%; for EC50: transactivation assay, HEK-293T cells. The class given is cell-based. On the procedure: (§2) HepG2 and HEK-293T cells were cultured at 37 °C in minimal essential medium (MEM) and Dulbecco’s Modified Eagle Medium (DMEM) respectively, supplemented with 10% fetal bovine serum, 1% L-glutamine, 100 U/mL penicillin, and 100 μg/mL streptomycin. To investigate FXR-mediated transactivation, the HepG2 cells were transfected with 200 ng of the reporter vector p (hsp27)TK-Luc containing the FXR response element IR1 cloned from the promoter of heat shock protein 27 (hsp27), plus 100 ng pSG5-FXR, 100 ng pSG5-RXR, and 100 ng pGL4.70 Renilla. To evaluate GPBAR1 mediated transactivation, HEK-293T cells were transfected with 200 ng of human pGL4.29 (Promega), a reporter vector containing a cAMP response element (CRE) that drives the transcription of the luciferase reporter gene luc2P, with 100 ng of pCMVSPORT6-human GPBAR1, and with 100 ng of pGL4.70. At 24 h post-transfection, cells were stimulated 18 h with 10 μM TLCA (taurolithocholic acid a GPBAR1 agonist) or CDCA (FXR agonist) and compounds. To calculate the EC50 on FXR and GPBAR1, dose-response curves were performed in HEK-293T cells transfected as described above and then treated with increasing concentrations of compounds (from 0.1 to 50 µM). After treatments, cells were lysed in 100 μL of lysis buffer (25 mM Tris-phosphate, pH 7.8; 2 mM DTT; 10% glycerol; 1% Triton X-100), and 10 μL of cellular lysate was assayed for luciferase activity using the Firfly &Renilla Luciferase assay kit (Biotium). Luminescence was measured using Glomax 20/20 luminometer (Promega). Luciferase activities were assayed and normalized with Renilla activities.

A further assay deals with T3, PPARα (Homo sapiens, UniProt Q07869).
T3 construct: 20 nM PPARα LBD GST fused (Thermo Scientific); purchased Thermo Scientific
T3 sequence (Q07869 239-466 limits assumed): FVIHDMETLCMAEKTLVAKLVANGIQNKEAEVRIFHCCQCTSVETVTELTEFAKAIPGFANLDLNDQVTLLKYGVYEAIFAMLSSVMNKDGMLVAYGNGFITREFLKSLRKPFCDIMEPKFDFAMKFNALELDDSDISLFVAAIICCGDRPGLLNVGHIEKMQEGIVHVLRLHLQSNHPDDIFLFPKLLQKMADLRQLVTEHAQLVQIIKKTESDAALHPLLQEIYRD
Briefly: AlphaScreen coactivator (SRC-1) recruitment assay on PPARα. In kind it is biochemical. The note with it: AlphaScreen SRC-1 recruitment; compounds at 50 µM (footnote); fenofibrate = 100%. As to the method: as §1, with “For efficacy, compounds were tested at 10 μM for FXR and 50 μM for PPARα.” left out
On the technique in general: Alpha assays give light when donor and acceptor beads are brought close together.

The target in assay [2] is T4, FXR (Homo sapiens, UniProt Q96RI1).
T4 construct: expressed in transfected cells; host or cells: HepG2 (the text says EC50 dose-response curves were run in HEK-293T)
T4 sequence (Q96RI1 1-486): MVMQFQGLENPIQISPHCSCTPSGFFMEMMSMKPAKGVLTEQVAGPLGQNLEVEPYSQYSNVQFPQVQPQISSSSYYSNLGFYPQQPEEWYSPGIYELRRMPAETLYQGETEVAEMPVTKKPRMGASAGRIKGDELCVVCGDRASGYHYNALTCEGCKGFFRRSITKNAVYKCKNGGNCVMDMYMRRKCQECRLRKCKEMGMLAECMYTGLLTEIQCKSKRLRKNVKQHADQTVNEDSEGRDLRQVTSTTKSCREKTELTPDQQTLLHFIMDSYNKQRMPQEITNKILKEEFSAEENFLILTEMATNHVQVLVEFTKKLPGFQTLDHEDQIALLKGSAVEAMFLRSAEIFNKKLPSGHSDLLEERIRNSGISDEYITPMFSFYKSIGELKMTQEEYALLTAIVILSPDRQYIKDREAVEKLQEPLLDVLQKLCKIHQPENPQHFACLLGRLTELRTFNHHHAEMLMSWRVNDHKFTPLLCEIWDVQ
T4 sequence (P19793 1-462 partner): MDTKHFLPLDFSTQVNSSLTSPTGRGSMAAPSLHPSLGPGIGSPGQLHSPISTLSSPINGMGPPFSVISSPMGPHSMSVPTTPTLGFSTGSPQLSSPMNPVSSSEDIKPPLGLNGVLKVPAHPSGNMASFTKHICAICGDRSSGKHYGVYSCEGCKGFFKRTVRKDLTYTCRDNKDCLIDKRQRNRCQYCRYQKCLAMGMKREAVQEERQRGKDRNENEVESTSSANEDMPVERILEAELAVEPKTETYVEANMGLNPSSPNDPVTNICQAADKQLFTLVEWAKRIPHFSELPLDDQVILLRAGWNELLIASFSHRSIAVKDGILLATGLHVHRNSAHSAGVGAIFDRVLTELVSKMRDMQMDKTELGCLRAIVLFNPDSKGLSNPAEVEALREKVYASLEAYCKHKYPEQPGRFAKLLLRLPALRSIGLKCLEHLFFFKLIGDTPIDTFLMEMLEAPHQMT
In words: FXR transactivation (luciferase reporter) assay in HepG2 cells. In kind it is cell-based. The note with it: for EC50: HepG2 cells. As to the method:
as §2

Structures are written as SMILES. “And” between values parts separate entries of the source, which are not always exact repeats. Equal entries are not always repeated.

Turning to `CC[C@@H]1C2C[C@H](OC(=O)C(C)(C)CCCOc3cc(C)ccc3C)CC[C@]2(C)C2CC[C@@]3(C)C(CC[C@@H]3[C@H](C)CCOC(=O)C(C)(C)CCCOc3cc(C)ccc3C)C2[C@@H]1O` (stereo partly drawn) [Compound 9], at FXR [1], the “FXR efficacy (% vs. CDCA)” value stood at 5.1 ± 1.9%. For the same compound, at GPBAR1, the Emax was found to be 28.5 ± 0.4%.
Regarding `CC[C@@H]1C2C[C@H](OC(=O)C(C)(C)Oc3ccc(Cl)cc3)CC[C@]2(C)C2CC[C@@]3(C)C(CC[C@@H]3[C@H](C)CCOC(=O)C(C)(C)Oc3ccc(Cl)cc3)C2[C@@H]1O` (stereo partly drawn) [Compound 3], at FXR [1], the “FXR efficacy (% vs. CDCA)” value is 48% and 48.0 ± 5.5%. For the same compound, a half-maximal effect on FXR [1] (AlphaScreen coactivator recruitment, FXR with SRC-1) (EC50) was put at 17.9 ± 2.6 µM. Also, on PPARα, the “PPARα efficacy (% vs. fenofibrate)” value is listed as 27 ± 10%. At GPBAR1, the Emax is 101%, the response was half-maximal at 1.8 ± 0.35 µM (EC50) and the “GPBAR1 efficacy (% vs. TLCA)” value was determined as 101.0 ± 0.4%. The same compound came in with a half-maximal effective concentration (EC50) at FXR [2] of 25 ± 0.01 µM.
`CC[C@@H]1C2C[C@H](O)CC[C@]2(C)C2CC[C@@]3(C)C(CC[C@@H]3[C@H](C)CCOC(=O)C(C)(C)CCCOc3cc(C)ccc3C)C2[C@@H]1O` (stereo partly drawn) [Compound 7]: at FXR [1], the “FXR efficacy (% vs. CDCA)” value is on record as 4.1 ± 0.6%. The “PPARα efficacy (% vs. fenofibrate)” value at PPARα is listed as 22 ± 18%. In addition, the Emax on GPBAR1 turned out to be 14 ± 1.3%.
As to `CC[C@@H]1C2C[C@H](OC(=O)C(C)(C)CCCOc3cc(C)ccc3C)CC[C@]2(C)C2CC[C@@]3(C)C(CC[C@@H]3[C@H](C)CCO)C2[C@@H]1O` (stereo partly drawn) [Compound 8], at PPARα, the “PPARα efficacy (% vs. fenofibrate)” value is given as 5.3 ± 0.8%. Besides, at GPBAR1, the Emax was 29.4 ± 5.1%.
For the compound `CC[C@@H]1C2C[C@H](OC(=O)C(C)(C)Oc3ccc(C(=O)c4ccc(Cl)cc4)cc3)CC[C@]2(C)C2CC[C@@]3(C)C(CC[C@@H]3[C@H](C)CCO)C2[C@@H]1O` (stereo partly drawn) [Compound 5], at PPARα, the “PPARα efficacy (% vs. fenofibrate)” value was 6.6 ± 1.9%. Besides, on GPBAR1, the Emax was 40 ± 0.7%.
`CC[C@@H]1C2C[C@H](O)CC[C@]2(C)C2CC[C@@]3(C)C(CC[C@@H]3[C@H](C)CCOC(=O)C(C)(C)Oc3ccc(C(=O)c4ccc(Cl)cc4)cc3)C2[C@@H]1O` (stereo partly drawn) [Compound 4]: at FXR [1], the “FXR efficacy (% vs. CDCA)” value is given as 14.0 ± 1.8%. The “PPARα efficacy (% vs. fenofibrate)” value on PPARα came out at 13 ± 3%. The Emax on GPBAR1 was determined as 41 ± 3%.
In the case of `CCC1C(O)C2C3CCC(C(C)CC(=O)O)C3(C)CCC2C2(C)CCC(O)CC12` (stereo not drawn) [BAR505, reference compound], the “PPARα efficacy (% vs. fenofibrate)” value at PPARα was found to be 40%. Besides, on GPBAR1, the EC50 worked out at 3.2 ± 1.1 µM and the “GPBAR1 efficacy (% vs. TLCA)” value came out at 103.6%. Besides, on FXR [2], the “FXR efficacy vs. CDCA (transactivation)” value was 457% and the EC50 is 1.9 ± 0.14 µM.
For `CC[C@@H]1C2C[C@H](OC(=O)C(C)(C)Oc3ccc(Cl)cc3)CC[C@]2(C)C2CC[C@@]3(C)C(CC[C@@H]3[C@H](C)CCO)C2[C@@H]1O` (stereo partly drawn) [Compound 2], the Emax on GPBAR1 worked out at 46 ± 16%.
On to `CC[C@@H]1C2C[C@H](OC(=O)C(C)(C)Oc3ccc(C(=O)c4ccc(Cl)cc4)cc3)CC[C@]2(C)C2CC[C@@]3(C)C(CC[C@@H]3[C@H](C)CCOC(=O)C(C)(C)Oc3ccc(C(=O)c4ccc(Cl)cc4)cc3)C2[C@@H]1O` (stereo partly drawn) [Compound 6], for which the “PPARα efficacy (% vs. fenofibrate)” value at PPARα worked out at 1.7 ± 0.5%. Also, the Emax on GPBAR1 was 30 ± 17%.
